# Several values for one entry are separate records, joined by “and”; a condition that tells them apart may be missing. Equal entries are not always repeated.
# Columns and labels:
# [1] = tested on: NF-κB activation; assay: Dual-luciferase (NF-κB firefly/SV40-Renilla) reporter assay, TNF-α-stimulated HEK293 cells; assay type: cell-based, human; details: for Relative luciferase activity (NF-κB/Renilla): Fig 4B, CTRL about 1; for NF-κB luciferase activity, dose-dependent curve: Fig S1A, CTRL about 100; for IC50: Homo sapiens, HEK293, luciferase assays at 0, 25, 50, 100, 150 μM, GraphPad, read-out: IC50 of inhibition of TNF-α-mediated NF-κB activation
# [2] = tested on: NF-κB target genes; assay: LPS-induced acute inflammation, qRT-PCR of NF-κB target genes in lung and liver; assay type: in vivo, mouse
# Description: Fig 6 Newly identified NBD mimetics suppress LPS-induced acute inflammation in vivo. (A) The bioavailability property of SR12460, SR12343, SR12454, and SR11481. Concentrations of NBD mimetics were determined in plasma, brain, muscle, spleen, and liver 2 h post a single i.p. injection of 10 mg/kg of drugs; n = 3 per group. (B) Shown is the model to induce LPS-mediated acute inflammation and the treatment regimen with NBD mimetics. Mouse image via http://www.clker.com/clipart-mice-blank.html (copyright-free). (C) NBD mimetics suppressed LPS-induced acute inflammation in liver and lung by down-regulating NF-κB target gene expression. Vehicle, SR12343, SR12460, and 8K-NBD peptide were dosed at 10 mg/kg 30 min prior to the LPS treatment. Acute inflammation was induced by i.p. injection of 10 mg/kg LPS. Lung and liver were collected 2–4 h post injection, and mRNA was extracted for qRT-PCR analysis. (D, E) Western blot analysis was performed to probe for the expression of p-IκBα and COX-2 at protein level in liver and lung tissues. (F) Serum levels of IL-6 were determine by ELISA. n = 3–8 each group. *P < 0.05, **P < 0.01. Underlying data can be found in S1 Data. COX-2, cyclooxygenase 2; IL-6, interleukin 6; i.p., intraperitoneal; LPS, lipopolysaccharide; NBD, NEMO-binding domain; n.d., nondetectable; NEMO, NF-κB essential modulator; NF-κB, nuclear factor κB; qRT-PCR, quantitative real-time polymerase chain reaction. TEXT PRINTED IN THE PICTURE: (A) SR11481: Concentration (ng/ml): n.d. (plasma)
# To determine their NF-κB inhibitory effects in vivo, SR12343 and SR12460 were tested in an acute model of LPS-induced systemic endotoxemia. C57BL/6J mice were pretreated with vehicle control, 8K-NBD peptide, or NBD mimetics at 10 mg/kg for 30 min, followed by LPS induction at 10 mg/kg (Fig 6B). Lung and liver were harvested 2–4 h post treatment for qRT-PCR analysis of NF-κB target genes. […] Despite lower plasma and tissue concentrations of SR12343 compared to SR12460, its inhibition of NF-κB/IKK in liver and lung were greater than that of SR12460 (Fig 6C). Similarly, acute treatment with SR12343 also affected the LPS-induced expression of NF-κB target genes at protein level. The extent of phosphorylation of IκBα and the levels of COX-2 were reduced in lung and liver tissues treated with SR12343 (Fig 6D and 6E). […] However, no significant differences in lung histopathology were observed. Finally, there was a slight reduction in the number of white blood cells and neutrophils in the SR12343-treated group (Table 2).
# LPS (strain O111:B4) was prepared in PBS at a sublethal dose of 10 mg/kg. Female WT mice 8 to 10 wk old (20–30 g) were dosed by i.p. injection with vehicle, NBD peptide (10 mg/kg), or small molecules (10 mg/kg) for 30 min, followed by i.p. injection of saline (1 mL/kg) or LPS (10 mg/kg). Mice were euthanized 2 to 4 h post treatment, and lung and liver tissues were collected for further analysis.
# Snap-frozen tissues were preserved in RNAlater RNA stabilization solution (ThermoFisher). Total RNA was extracted from cells or tissues by using TRIZOL reagent (Life Technologies), and 1,500 ng of mRNA was subjected to synthesis of cDNA using SuperScript VILO cDNA synthesis kit. qRT-PCR was performed in a StepOnePlus Real-Time PCR system using Platinum SYBR Green qPCR SuperMix-UDG (ThermoFisher). Target gene expression was calculated using the comparative CT method (ΔΔCT) by normalizing to an internal control gene Actb (β-actin). […]
# [3] = Body weight of chronically treated mdx mice; details: in g (unit assumed); for Body weight AVG: group average (FigS3A); for Body weight: individual mouse (FigS3A)
# [4] = Fig 6C, 10 mg/kg 30 min before LPS 10 mg/kg i.p., 2-4 h, single mice
SMILES,Relative luciferase activity (NF-κB/Renilla) ([1]; 25 μM),Relative luciferase activity (NF-κB/Renilla) ([1]; 50 μM),Relative luciferase activity (NF-κB/Renilla) ([1]; 100 μM),"NF-κB luciferase activity, dose-dependent curve ([1]; 25 μM)","NF-κB luciferase activity, dose-dependent curve ([1]; 50 μM)","NF-κB luciferase activity, dose-dependent curve ([1]; 100 μM)",IC50 [1] [µM],"ikBa mRNA in lung (qRT-PCR, relative to vehicle) [2, 4]",Body weight AVG ([3]; Day 21),Body weight ([3]; Day 21),Body weight AVG ([3]; Day 23),Body weight ([3]; Day 23),Body weight AVG ([3]; Day 26),Body weight ([3]; Day 26),Body weight AVG ([3]; Day 28),Body weight ([3]; Day 28),Body weight AVG ([3]; Day 30),Body weight ([3]; Day 30),Body weight AVG ([3]; Day 32),Body weight ([3]; Day 32),also measured
O=C(CNc1ccc(Cl)cn1)NCCc1cccc(Br)c1 [SR12343],0.621 and 0.6268 and 0.6057,0.3824 and 0.4086 and 0.3925,0.327 and 0.2292 and 0.2181,62 and 63 and 60,38 and 41 and 39,33 and 23 and 22,37,0.8689 and 0.6292 and 0.6865 and 0.9681 and 0.6797 and 1.015 and 0.7177,8.8,8.1 and 9 and 8.6 and 10 and 8.3,10.48,9.5 and 11.4 and 9.8 and 10.7 and 11,12.2,10.8 and 13.9 and 12.3 and 11.7,13.48,12.7 and 14.8 and 12.2 and 13.2 and 14.5,15.66,12.5 and 17.3 and 16.6 and 15.5 and 16.4,18.96,16.4 and 21.5 and 20 and 18 and 18.9,"NF-κB transcriptional activity in lung (iNOS, IκBα, COX-2, IL-6) ([2]; 10 mg/kg, LPS 10 mg/kg): significantly inhibit; ikBa mRNA in liver (qRT-PCR, relative to vehicle) [2, 4]: 1.072 and 1.242 and 1.317 and 1.467 and 0.7748 and 0.7346 and 1.371; Body weight AVG ([3]; Day 34): 19.78; Body weight ([3]; Day 34): 16.9 and 22.5 and 20.5 and 19.4 and 19.6; Body weight AVG ([3]; Day 37): 20.46; Body weight ([3]; Day 37): 18.3 and 23 and 21.4 and 19.4 and 20.2; Body weight AVG ([3]; Day 39): 21.7333; Body weight ([3]; Day 39): 18.2 and 24.1 and 22.9; Body weight AVG ([3]; Day 41): 22.4; Body weight ([3]; Day 41): 19.6 and 25 and 22.6; Body weight AVG ([3]; Day 44): 22.9667; Body weight ([3]; Day 44): 20 and 24.7 and 24.2; Body weight AVG ([3]; Day 46): 22.8667; Body weight ([3]; Day 46): 21 and 24 and 23.6"
O=C(CNCCc1cc(F)cc(F)c1)Nc1ccc(Cl)cn1 [SR12460],0.1864 and 0.2241 and 0.2663,0.09822 and 0.1016 and 0.1003,0.1076 and 0.0851 and 0.1209,18.6398 and 22.411 and 26.6317,9.822 and 10.1552 and 10.0281,10.7557 and 8.5097 and 12.0922,11.3,0.8864 and 1.179 and 0.7265 and 0.7577 and 0.6496 and 0.9355 and 0.7819,8.34,8.5 and 8.8 and 6.9 and 9,9.96,10.5 and 9.7 and 8.5 and 10.3 and 10.8,11.42,12.6 and 10.7 and 10.9 and 11.3 and 11.6,13.58,14.1 and 14.6 and 13.2 and 12.6 and 13.4,14.92,16.1 and 13.5 and 14.9 and 14.4 and 15.7,18.56,20.3 and 16.4 and 20.2 and 18.3 and 17.6,"Relative luciferase activity (NF-κB/Renilla) ([1]; 150 μM): 0.09311 and 0.129 and 0.1129; NF-κB luciferase activity, dose-dependent curve ([1]; 150 μM): 9.311 and 12.8976 and 11.2908; iNOS mRNA in lung (qRT-PCR, relative to vehicle) [2, 4]: 0.4025 and 0.5396 and 0.4809 and 0.7846 and 0.6512 and 0.5854 and 0.4587 and 0.5387; Body weight AVG ([3]; Day 34): 19.58; Body weight ([3]; Day 34): 21 and 17.1 and 21.1 and 18.8 and 19.9; Body weight AVG ([3]; Day 37): 20.22; Body weight ([3]; Day 37): 22.2 and 18.3 and 19.3 and 19.1; Body weight AVG ([3]; Day 39): 21.5333; Body weight ([3]; Day 39): 22.3 and 18.8 and 23.5; Body weight AVG ([3]; Day 41): 22.4; Body weight ([3]; Day 41): 23.1 and 19.5 and 24.6; Body weight AVG ([3]; Day 44): 22.7333; Body weight ([3]; Day 44): 23.7 and 19.3 and 25.2; Body weight AVG ([3]; Day 46): 23.7; Body weight ([3]; Day 46): 25 and 20.1 and 26"
